In patent US7671230B2, “Derivatization and solubilization of insoluble classes of fullerenes” (TDA Research, Inc., priority 2001, dated 2010):

Assays:
[1] = Solubility of fullerenic species and their derivatives in solvents; format: physicochemical; conditions: for solubility of derivative in organic solvents: common polar and non-polar organic solvents; for solubility class: both non-polar and polar solvents
From the text: Insoluble fullerenes are any fullerenic species generated by any known method which are not soluble in solvents (common solvents, i.e., non-polar organic solvents, such as hydrocarbons and arenes and halogenated arenes, including toluene, benzene) commonly employed to solublize fullerenes, such as C60. Solubility (or lack thereof) of a given fullerenic species in a given solvent can be assessed by methods known in the art, e.g., by assessing how much of a fullerenic species can be extracted into a given amount of solvent, for example, using mass spectrometric methods as illustrated herein. The insoluble classes of fullerenes are also insoluble in polar solvents. […] Non-derivatized fullerenic species are in general not soluble in almost all polar solvents. However, fullerenic species, if soluble have an anomalously high solubility in polar chloro and bromo substituted arenes. As discussed herein and as is understood in the art certain classes of non-derivatized fullerenic species are soluble in non-polar solvents such as toluene and benzene.
The methods of this invention can be used to derivatize insoluble fullerenic species and related carbon nanotube species to make them soluble (or to enhance the solubility of given fullerenic species or carbon nanotubes). Derivatization reaction of this invention may render the derivatized species soluble (or enhance its solubility) in common non-polar solvents or it may render the derivatized species soluble (or enhance its solubility) in polar solvents. For purposes of this application, solubility is defined as the dissolution of free molecules (or salts) in the solvent with reversibility to remove the solvent to obtain the molecules (or salts) dissolved. In preferred cases, the solvent is readily removed by application of reduced pressure and/ or by non-destructive heating. A species may also be removed from solution by recrystallization, for example by addition of solvent in which the species is not soluble to the solution. Certain solvents may readily dissolve a given species, but may not be removable to regenerate the species that was dissolved or it may not be possible to recrystallize the species unchanged. For example, the solvent may only be partially removable or the solvent may have reacted with the species causing a chemical change or irreversible adduct formation.
In general, fullerenes have “low solubility” in all solvents compared to most organic compounds. […] C60 is insoluble in polar solvents like acetonitrile and methanol (no measurable amount dissolves). […] C60 is soluble in substituted naphthalenes (30 to 50 mg/mL). […] As noted above, insoluble classes of fullerenic species are also insoluble in polar solvents.

[2] = Air/water stability of derivatized materials (long-term stability of solutions, re-dissolution of exposed solids); format: physicochemical; conditions: presence of oxygen and/or water; no evidence for decomposition over several months time
[3] = Aqueous-phase size-exclusion chromatography (SEC-HPLC), aggregation; format: physicochemical
Experimental: This derivatized metallofullerene, Gd@C60(C(COOCH2CH3)2)x, can be converted to a water-soluble species by de-esterification to carboxylic acid or carboxylate salt groups. This is performed by the method of Hirsch (Lamparth, 1994). The ester derivative (100 mg) is dissolved in toluene (15 mL) and vigorously stirred at reflux with excess solid NaH (100 mg) under argon for 2-3 hours. Next, methanol (3 mL) is added with stirring. Vigorous bubbling is observed, followed by precipitation of the sodium carboxylate salt of the Gd@C60 derivative. The solid is isolated, dissolved in water, and partially purified with dialysis tubing (MW cutoff˜500). The water is removed from an aqueous solution of the carboxylate with a rotary evaporator connected to a vacuum source; it is important to avoid decarboxylation by heating gently (<50° C.). Lowering the pH of aqueous solutions of the carboxylate salt can produce the acid form, which may have less water solubility depending on the number of acid groups present. […] Ion-exchange resin (Dowex-50, etc. etc.) can be used to change the counterion in Gd@C60(C(COONa)2)x to other alkali metals etc. or to hydrogen (proton) i.e. Gd@C60(C(COOH)2)x.

[4] = aqueous; compared with conventional inorganic chelates; cited from earlier work

C60(C33H48O12)
solubility of derivative in organic solvents [1]: solubility in a variety of common polar and non-polar organic solvents

Gd@C60
solubility class [1]: Insoluble

Gd@C60(C(COOCH2CH3)2)x
stability in air / oxygen and water [2]: air-stable | solubility of derivative in organic solvents [1]: solubility in a variety of common polar and non-polar organic solvents

Gd@C60(C(COOH)2)x
stability in air / oxygen and water [2]: air-stable

Gd@C60(C(COONa)2)x
aggregation state in aqueous solution [3]: not clustered in large aggregates | stability in air / oxygen and water [2]: air-stable | water solubility [1]: fully water-soluble

Gd@C82
solubility class [1]: Slightly Soluble

Gd@C82(OH)x
R1 relaxivity [4]: higher R1 values

^166Ho@C60(C(COOCH2CH3)2)x
solubility in THF after derivatization ([1]; tetrahydrofuran): soluble

^166Ho@C60(C(COONa)2)x
water solubility [1]: water soluble
